For the test, the target named is T1, Serine protease 1 (Bos taurus, UniProt P00760).
T1 sequence (P00760 whole entry): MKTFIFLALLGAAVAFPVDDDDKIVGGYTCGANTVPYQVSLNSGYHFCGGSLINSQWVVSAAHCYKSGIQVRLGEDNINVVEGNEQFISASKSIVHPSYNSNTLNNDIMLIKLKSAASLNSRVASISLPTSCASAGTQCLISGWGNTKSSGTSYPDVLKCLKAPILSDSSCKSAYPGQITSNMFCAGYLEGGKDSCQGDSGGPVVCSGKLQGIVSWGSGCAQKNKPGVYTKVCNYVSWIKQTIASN
Nature of the test: Enzyme Inhibition Assay. Here is the method:
The enzyme activities were determined kinetically as the initial rate of cleavage of a peptide p-nitroanilide. Km for enzyme and substrate was determined using four substrate dilutions. Enzyme was incubated with test compounds for 10 min; the reaction was then started by the addition of the substrate. […] IC50 values for inhibitors were determined from the dose response curve by fitting the data to the Hill equation. Ki,app values were calculated as the IC50/2, with the IC50 value determined at a substrate concentration equal to Km

The Ki is a measure of affinity in units of concentration, obtained from inhibition or displacement. Read a low Ki as tighter binding.

Some results are limits rather than exact numbers.

Turning to `CN1CCN(Cc2cc(Cl)c(C(=O)Nc3ccc(Cl)cc3C(=O)Nc3ccc(Cl)cc3)s2)CC1` [3-chloro-N-{4-chloro-2-[(4-chlorophenyl)carbamoyl]phenyl}-5-[(4-methylpiperazin-1-yl)methyl]thiophene-2-carboxamide], the Ki was over 5 µM.
In the case of `CN1CCN(Cc2c(C(=O)Nc3ccc(Cl)cc3C(=O)Nc3ccc(Cl)cc3)sc3ccccc23)CC1` [N-{4-chloro-2-[(4-chlorophenyl)carbamoyl]phenyl}-3-[(4-methylpiperazin-1-yl)methyl]-1-benzothiophene-2-carboxamide] it was over 5 µM; in that of `O=C(Nc1ccc(Cl)cc1)c1cc(Cl)ccc1NC(=O)c1sc(CN2CCOCC2)cc1Cl` [3-chloro-N-{4-chloro-2-[(4-chlorophenyl)carbamoyl]phenyl}-5-(morpholin-4-ylmethyl)thiophene-2-carboxamide], over 5 µM.
For the compound `CCOC(=O)CN(C)Cc1csc(C(=O)Nc2ccc(Cl)cc2C(=O)Nc2ccc(Cl)cc2)c1Cl` [ethyl 2-({[4-chloro-5-({4-chloro-2-[(4-chlorophenyl)carbamoyl]phenyl}carbamoyl)thiophen-3-yl]methyl}(methyl)amino)acetate], the Ki was over 5 µM.
In the case of `CCN(CC)CCN(C)Cc1csc(C(=O)Nc2ccc(Cl)cc2C(=O)Nc2ccc(Cl)cc2)c1Cl` [3-chloro-N-{4-chloro-2-[(4-chlorophenyl)carbamoyl]phenyl}-4-({[2-(diethylamino)ethyl](methyl)amino}methyl)thiophene-2-carboxamide] it was over 5 µM; in that of `O=C(Nc1ccc(Cl)cc1)c1cc(Cl)ccc1NC(=O)c1scc(COCC(O)CO)c1Cl` (configuration not stated) [3-chloro-N-{4-chloro-2-[(4-chlorophenyl)carbamoyl]phenyl}-4-[(2,3-dihydroxypropoxy)methyl]thiophene-2-carboxamide], over 5 µM.
In the case of `CN(CCN1CCCC1)Cc1csc(C(=O)Nc2ccc(Cl)cc2C(=O)Nc2ccc(Cl)cc2)c1Cl` [3-chloro-N-{4-chloro-2-[(4-chlorophenyl)carbamoyl]phenyl}-4-({methyl[2-(pyrrolidin-1-yl)ethyl]amino}methyl)thiophene-2-carboxamide] it was over 5 µM; in that of `O=C(Nc1ccc(Cl)cc1)c1cc(Cl)ccc1NC(=O)c1sc2ccccc2c1Cl` [3-chloro-N-{4-chloro-2-[(4-chlorophenyl)carbamoyl]phenyl}-1-benzothiophene-2-carboxamide], over 5 µM; in that of `CN(C)CCSCc1csc(C(=O)Nc2ccc(Cl)cc2C(=O)Nc2ccc(Cl)cc2)c1Cl` [3-chloro-N-{4-chloro-2-[(4-chlorophenyl)carbamoyl]phenyl}-4-({[2-(dimethylamino)ethyl]sulfanyl}methyl)thiophene-2-carboxamide], over 5 µM.
Regarding `CN(C)Cc1c(C(=O)Nc2ccc(Cl)cc2C(=O)Nc2ccc(Cl)cc2)sc2ccccc12` [N-{4-chloro-2-[(4-chlorophenyl)carbamoyl]phenyl}-3-[(dimethylamino)methyl]-1-benzothiophene-2-carboxamide], the Ki was over 5 µM.
In the case of `CC(=O)N1CCN(Cc2csc(C(=O)Nc3ccc(Cl)cc3C(=O)Nc3ccc(Cl)cc3)c2Cl)CC1` [3-chloro-N-{4-chloro-2-[(4-chlorophenyl)carbamoyl]phenyl}-4-[(4-acetylpiperazin-1-yl)methyl]thiophene-2-carboxamide] it was over 5 µM; in that of `CN(CCOCCO)Cc1csc(C(=O)Nc2ccc(Cl)cc2C(=O)Nc2ccc(Cl)cc2)c1Cl` [3-chloro-N-{4-chloro-2-[(4-chlorophenyl)carbamoyl]phenyl}-4-({[2-(2-hydroxyethoxy)ethyl](methyl)amino}methyl)thiophene-2-carboxamide], over 5 µM.
In the case of `CN(CCO)Cc1csc(C(=O)Nc2ccc(Cl)cc2C(=O)Nc2ccc(Cl)cc2)c1Cl` [3-chloro-N-{4-chloro-2-[(4-chlorophenyl)carbamoyl]phenyl}-4-{[(2-hydroxyethyl)(methyl)amino]methyl}thiophene-2-carboxamide] it was over 5 µM; in that of `O=C(Nc1ccc(Cl)cc1)c1cc(Cl)ccc1NC(=O)c1scc(CN2CCSCC2)c1Cl` [3-chloro-N-{4-chloro-2-[(4-chlorophenyl)carbamoyl]phenyl}-4-(thiomorpholin-4-ylmethyl)thiophene-2-carboxamide], over 5 µM.
In the case of `CN(C)CCCN(C)Cc1csc(C(=O)Nc2ccc(Cl)cc2C(=O)Nc2ccc(Cl)cc2)c1Cl` [3-chloro-N-{4-chloro-2-[(4-chlorophenyl)carbamoyl]phenyl}-4-({[3-(dimethylamino)propyl](methyl)amino}methyl)thiophene-2-carboxamide] it was over 5 µM; in that of `O=C(Nc1ccc(Cl)cc1)c1cc(Cl)ccc1NC(=O)c1scc(Cn2ccnc2)c1Cl` [3-chloro-N-{4-chloro-2-[(4-chlorophenyl)carbamoyl]phenyl}-4-(1H-imidazol-1-ylmethyl)thiophene-2-carboxamide], over 5 µM; in that of `COCCOCCOCc1csc(C(=O)Nc2ccc(Cl)cc2C(=O)Nc2ccc(Cl)cc2)c1Cl` [3-chloro-N-{4-chloro-2-[(4-chlorophenyl)carbamoyl]phenyl}-4-{[2-(2-methoxyethoxy)ethoxy]methyl}thiophene-2-carboxamide], over 5 µM.
In turn, `O=C(Nc1ccc(Cl)cc1)c1cc(Cl)ccc1NC(=O)c1scc(CNCCCn2ccnc2)c1Cl` [3-chloro-N-{4-chloro-2-[(4-chlorophenyl)carbamoyl]phenyl}-4-({[3-(1H-imidazol-1-yl)propyl]amino}methyl)thiophene-2-carboxamide] yielded a Ki of over 5 µM.
`CCN1CCN(Cc2csc(C(=O)Nc3ccc(Cl)cc3C(=O)Nc3ccc(Cl)cc3)c2Cl)CC1` [3-chloro-N-{4-chloro-2-[(4-chlorophenyl)carbamoyl]phenyl}-4-[(4-ethylpiperazin-1-yl)methyl]thiophene-2-carboxamide] yielded a Ki of over 5 µM.
In the case of `CN1CCN(Cc2ccc3c(Cl)c(C(=O)Nc4ccc(Cl)cc4C(=O)Nc4ccc(Cl)cc4)sc3c2)CC1` [3-chloro-N-{4-chloro-2-[(4-chlorophenyl)carbamoyl]phenyl}-6-[(4-methylpiperazin-1-yl)methyl]-1-benzothiophene-2-carboxamide] it was over 5 µM; in that of `C[S+]([O-])Cc1csc(C(=O)Nc2ccc(Cl)cc2C(=O)Nc2ccc(Cl)cc2)c1Cl` (configuration not stated) [3-chloro-N-{4-chloro-2-[(4-chlorophenyl)carbamoyl]phenyl}-4-(methanesulfinylmethyl)thiophene-2-carboxamide], over 5 µM.
Then `COCCOCc1csc(C(=O)Nc2ccc(Cl)cc2C(=O)Nc2ccc(Cl)cc2)c1Cl` [3-chloro-N-{4-chloro-2-[(4-chlorophenyl)carbamoyl]phenyl}-4-[(2-methoxyethoxy)methyl]thiophene-2-carboxamide], with over 5 µM.
In the case of `O=C(Nc1ccc(Cl)cc1)c1cc(Cl)ccc1NC(=O)c1scc(Cn2ccnn2)c1Cl` [3-chloro-N-{4-chloro-2-[(4-chlorophenyl)carbamoyl]phenyl}-4-(1H-1,2,3-triazol-1-ylmethyl)thiophene-2-carboxamide] it was over 5 µM.
With `O=C(O)CN1CCN(Cc2ccc3c(Cl)c(C(=O)Nc4ccc(Cl)cc4C(=O)Nc4ccc(Cl)cc4)sc3c2)CC1` [2-(4-{[3-chloro-2-({4-chloro-2-[(4-chlorophenyl)carbamoyl]phenyl}carbamoyl)-1-benzothiophen-6-yl]methyl}piperazin-1-yl)acetic acid], the Ki is over 5 µM.
In the case of `O=C(Nc1ccc(Cl)cc1)c1cc(Cl)ccc1NC(=O)c1scc(Cn2cccn2)c1Cl` [3-chloro-N-{4-chloro-2-[(4-chlorophenyl)carbamoyl]phenyl}-4-(1H-pyrazol-1-ylmethyl)thiophene-2-carboxamide] it was over 5 µM; in that of `O=C(Nc1ccc(Cl)cc1)c1cc(Cl)ccc1NC(=O)c1scc(Cn2ncnn2)c1Cl` [3-chloro-N-{4-chloro-2-[(4-chlorophenyl)carbamoyl]phenyl}-4-(2H-1,2,3,4-tetrazol-2-ylmethyl)thiophene-2-carboxamide], over 5 µM.
`CN(Cc1csc(C(=O)Nc2ccc(Cl)cc2C(=O)Nc2ccc(Cl)cc2)c1Cl)CC(O)CO` (configuration not stated) [3-chloro-N-{4-chloro-2-[(4-chlorophenyl)carbamoyl]phenyl}-4-{[(2,3-dihydroxypropyl)(methyl)amino]methyl}thiophene-2-carboxamide]: the Ki was over 5 µM.
Then `CN1CCN(Cc2csc(C(=O)Nc3ccc(Cl)cc3C(=O)Nc3ccc(Cl)cc3)c2Cl)CC1` [thiophene-containing non-amidine inhibitor, 31], with over 5 µM.
Then `O=C(Nc1ccc(Cl)cc1)c1cc(Cl)ccc1NC(=O)c1scc(CN2CCOCC2)c1Cl` [3-chloro-N-{4-chloro-2-[(4-chlorophenyl)carbamoyl]phenyl}-4-(morpholin-4-ylmethyl)thiophene-2-carboxamide], with over 5 µM; and `Cc1cccc2sc(C(=O)Nc3ccc(Cl)cc3C(=O)Nc3ccc(Cl)cc3)c(Cl)c12` [3-chloro-N-{4-chloro-2-[(4-chlorophenyl)carbamoyl]phenyl}-4-methyl-1-benzothiophene-2-carboxamide], with over 5 µM; and `CS(=O)(=O)Cc1csc(C(=O)Nc2ccc(Cl)cc2C(=O)Nc2ccc(Cl)cc2)c1Cl` [3-chloro-N-{4-chloro-2-[(4-chlorophenyl)carbamoyl]phenyl}-4-(methanesulfonylmethyl)thiophene-2-carboxamide], with over 5 µM.
Then `Cc1csc(C(=O)Nc2ccc(Cl)cc2C(=O)Nc2ccc(Cl)cc2)c1Cl` [3-chloro-N-{4-chloro-2-[(4-chlorophenyl)carbamoyl]phenyl}-4-methylthiophene-2-carboxamide], with over 5 µM.

(Values after BindingDB's records for doi:10.1016/j.bmc.2006.12.019 (Berlex, 2007).)
